Results as given in paper PMC11591545 (Antibiotics, 2024).
In brackets after ≈: the same amount, converted by molar mass. Where two headings read alike, the source gives them in different places.

Key:
[1] = system: S. aureus infection isolates; test: MIC strips test and broth microdilution assay according to EUCAST; type: cell-based, Staphylococcus aureus
Experimental: The MIC was tested with the MIC strips test (Liofilchem, Roseto degli Abruzzi, Italy) and broth microdilution assay according to EUCAST standards and the manufacturer’s instructions. All patients with VAD-associated infections were included in a register study after providing informed consent. A positive vote of the ethics committee of Heidelberg University Hospital was obtained before the start of the study (S-674/2022). […] Clinical data and laboratory and microbiological results were extracted.

[2] = in vivo
[3] = serum, mean ± SD
Experimental: (§1) Sampling was routinely performed on three occasions for each patient at day 1 (30 min after the end of the infusion), day 7 (before redosing), and day 42 (before redosing). Blood samples were centrifuged (5 min, 4000 rpm) immediately after collection and aliquoted into 2 mL propylene tubes (Eppendorf, Hamburg, Germany). Aliquots were stored at −20 °C within 60 min after sample collection for a maximum of 4 weeks until assay. […] To obtain the unbound fraction, samples were prepared by solid phase extraction using a Nanosep® filter (Pall, New York, NY, USA) [18]. The limit of quantification (QL) was 12.5 mg/L for the total concentration and 1 mg/L for the unbound fraction [18].

[4] = human
Experimental: as §1

[5] = fixed in the final model, based on a previous reported value; cited from earlier work
clinical [6] = conditions: human, in vivo, iv
clinical [7] = conditions: human, serum, iv, 1500 mg; SD
Experimental: as §1

[8] = cited from earlier work
[9] = label; cited from earlier work
S. aureus = test: Individual fAUC24 h/MIC at the end of the dosing interval in VAD patients; conditions: last 24 h before redosing
Experimental: To use a conservative approach in suppressive therapy reflecting efficacy in the crucial phase before redosing, the AUC was calculated at the end of the dosing interval (last 24 h before redosing) [21].

Molecule CN[C@H]1C(=O)N[C@@H]2Cc3ccc(cc3)Oc3cc4cc(c3O[C@@H]3O[C@H](C(=O)O)[C@@H](O)[C@H](O)[C@H]3NC(=O)CCCCCCCCC(C)C)Oc3ccc(cc3Cl)[C@@H](O)[C@@H]3NC(=O)[C@H](NC(=O)[C@@H]4NC(=O)[C@@H](NC2=O)c2cc(cc(O)c2Cl)Oc2cc1ccc2O)c1ccc(O)c(c1)-c1c(O[C@H]2O[C@H](CO)[C@@H](O)[C@H](O)[C@@H]2O)cc(O)cc1[C@@H](C(=O)NCCCN(C)C)NC3=O [dalbavancin] has an MIC ([1]; isolate of patient 1) of 0.064 mg/L (≈ 0.0352 µM), an MIC ([1]; isolate of patient 2) of 0.064 mg/L (≈ 0.0352 µM) and an MIC ([1]; isolate of patient 5) of 0.094 mg/L (≈ 0.0517 µM). It also gave an MIC ([1]; isolate of patient 7) of 0.047 mg/L (≈ 0.0259 µM), an MIC ([1]; isolate of patient 8) of 0.047 mg/L (≈ 0.0259 µM) and an MIC ([1]; isolate of patient 9) of 0.064 mg/L (≈ 0.0352 µM). The MIC ([1]; isolate of patient 10) was 0.125 mg/L (≈ 0.0688 µM), the MIC ([1]; isolate of patient 11) was 0.064 mg/L (≈ 0.0352 µM) and the MIC ([1]; isolate of patient 12) was 0.047 mg/L (≈ 0.0259 µM). The MIC ([1]; isolate of patient 13) was 0.064 mg/L (≈ 0.0352 µM), the “CL, bootstrap mean (CI 95%)” value [2] was 0.050 (0.044–0.055) L/h and the “V1, bootstrap mean (CI 95%)” value [2] was 6.42 (5.65–7.31) L. For the same molecule, the “V1, central volume of distribution, estimate” value [2] was 6.5 L, the “V2, bootstrap mean (CI 95%)” value [2] was 14.99 (12.46–18.67) L and the “V2, peripheral volume of distribution, estimate” value [2] was 15.4 L. The “fcday1 (unbound concentration day 1)” value ([3]; end of infusion after the first dose) was 6.3 ± 2.7, the “fcday8 (unbound concentration day 8)” value ([3]; trough by the end of the first week) was 1.3 ± 0.6 and the observed protein binding [4] was 96-98%. For the same molecule, the “Q, inter-compartmental clearance” value [5] was 0.476 L/h, the Vd (clinical [6]) was 21.9 L and the clearance (clinical [6]) was 0.833 mL/min. The level at 0.5 h (clinical [7]) was 218 ± 65.9 µg/mL, the level at 168 h (clinical [7]) was 41100 ± 11100 ng/mL and the level at 1008 h (clinical [7]) was 13200 ± 9900 ng/mL. For the same molecule, the “population VD” value ([8]; earlier population PK studies) was 15.0 to 16.7 L, the half-life ([8]; reported) was 15.6 days and the “clearance (CL)” value ([8]; three-compartment model, ref Carrothers et al. 14) was 0.053 L/h. The “clearance (CL)” value ([8]; two-compartment model, ref Buckwalter et al. 11) was 0.057 L/h, the “clearance (CL)” value ([8]; two-compartment model, ref Cojutti et al. 13) was 0.041 L/h and the labeled protein binding [9] was 93%. The “fAUC24 h/MIC” value (S. aureus; patient 1) was 141, the “fAUC24 h/MIC” value (S. aureus; patient 2) was 318 and the “fAUC24 h/MIC” value (S. aureus; patient 3, MIC not available, calculated with S. aureus breakpoint 0.25 mg/L) was 26. For the same molecule, the “fAUC24 h/MIC” value (S. aureus; patient 4, MIC not available, calculated with S. aureus breakpoint 0.25 mg/L) was 127, the “fAUC24 h/MIC” value (S. aureus; patient 5) was 110 and the “fAUC24 h/MIC” value (S. aureus; patient 6, MIC not available, calculated with S. aureus breakpoint 0.25 mg/L) was 49. The “fAUC24 h/MIC” value (S. aureus; patient 7) was 165, the “fAUC24 h/MIC” value (S. aureus; patient 8) was 253 and the “fAUC24 h/MIC” value (S. aureus; patient 9) was 582. The “fAUC24 h/MIC” value (S. aureus; patient 10) was 60, the “fAUC24 h/MIC” value (S. aureus; patient 11) was 311 and the “fAUC24 h/MIC” value (S. aureus; patient 12) was 104. The “fAUC24 h/MIC” value (S. aureus; patient 13) was 84.
